Reference: PMC11373198, “In vitro efficacy of next-generation dihydrotriazines and biguanides against babesiosis and malaria parasites” (Antimicrobial Agents and Chemotherapy, 2024)
Read-outs that look alike come from different tables or passages of the source.

Legend:
B. duncani (WA-1) = assay: In vitro growth inhibition of B. duncani in human erythrocytes (SYBR Green-I); format: cell-based, Babesia duncani; conditions: for IC50: 60 h; for activity against B. duncani, structure-activity relationship: analogs compared within screening, 2-chloro, 4-trifluoromethoxy series or terminal aryl heterocycles
B. divergens (Rouen87) = assay: In vitro growth inhibition of B. divergens in human erythrocytes (SYBR Green-I); format: cell-based; conditions: Babesia divergens, Erythrocyte, DFS20 medium
Experimental: (§1) The effect of DHT derivatives on the intraerythrocytic development of P. falciparum, B. duncani, B. divergens and B. MO1 and the determination of IC50 values were conducted as previously reported ([54], [67]). Briefly, the parasites cultured in vitro (0.1% parasitemia with 5% hematocrit in complete DFS20 medium or RPMI-1640) were treated with various concentrations of the compounds in a 96-well plate and incubated at 37 °C for either 60 h in the case of B. duncani or 72 h in the case of P. falciparum. Parasitemia was then determined using the SYBR Green-I method by adding an equal volume of parasite culture to the lysis buffer (0.008% saponin, 0.08% Triton-X-100, 20 mM Tris-HCl (pH = 7.5), and 5 mM EDTA) containing SYBR Green-I (0.01%). The mixture was then incubated at 37°C for 1 h in the dark. The fluorescence was measured at 480 nm (excitation) and 540 nm (emission) using a BioTek Synergy™ Mx Microplate Reader. Background fluorescence from uninfected erythrocytes maintained in a complete DFS20 and RPMI-1640 medium was subtracted from each sample, and the 50% inhibitory concentration (IC50) of the drug was determined by plotting drug concentrations versus parasite growth using GraphPad Prism 9.2.1. Data are shown as mean ± SD from two biological replicates with three technical replicates.

B. MO1 = assay: In vitro growth inhibition of B. MO1 in human erythrocytes (SYBR Green-I); format: cell-based, Babesia MO1; conditions: DFS20 medium
Experimental: as §1

P. falciparum 3D7 = assay: In vitro growth inhibition of P. falciparum 3D7 (SYBR Green-I); format: cell-based, Plasmodium falciparum
P. falciparum Dd2 = assay: In vitro growth inhibition of P. falciparum Dd2 (SYBR Green-I); format: cell-based, Plasmodium falciparum; conditions: DFS20 medium, read-out: PfDd2 (IC50 in nM)
P. falciparum HB3 = assay: In vitro growth inhibition of P. falciparum HB3 (SYBR Green-I); format: cell-based, Plasmodium falciparum; conditions: DFS20 medium, read-out: PfHB3 (IC50 in nM)
[1] = test system: human cell lines (HepG2, HCT-116, HEK-293, and HeLa); assay: Cytotoxicity on human cell lines, average / overall, and therapeutic index; format: cell-based; conditions: HepG2, HCT-116, HEK-293, HeLa, MTT 72 h
Experimental: HeLa, HepG2, HEK293, and HCT116 cell lines were obtained from the American Type Culture Collection (ATCC) and maintained in Dulbecco’s modified Eagle’s medium (DMEM) (Invitrogen 11995–065) containing 25 mM glucose, 1 mM sodium pyruvate, and supplemented with 5 mM HEPES, 10% FBS, and penicillin-streptomycin (50 U/mL penicillin, 50 µg/mL streptomycin). Cells were seeded in a 96-well tissue culture plate (20,000 cells per well) and allowed to adhere for 24 hours, after which they were treated with a 12-step 2-fold serial dilution of each drug starting at 1 mM as the highest final concentration. Cells maintained in the medium supplemented with either 0.1% or 10% DMSO were used as negative and positive vehicle controls, respectively. The plates were incubated at 37 °C for 72 h, after which each well was incubated with 0.5 mg/mL of MTT reagent (MP Chemicals #02102227) for 4 h in the dark at 37 °C. The formazan crystals formed by living cells were solubilized with the addition of 100 µL of DMSO to each well. We measured the OD590nm using a SpectraMax plate reader. From the obtained OD values, percent cell viability was estimated by normalizing to the mean of 10% DMSO wells (set as 100% toxicity) and mean of the vehicle control wells (set as 0% toxicity). Dose-response curves were plotted using GraphPad Prism version 9.1.2.

B. duncani = test system: B. duncani; design: method as in PMID 37055610; conditions: previous studies; read-out: IC50 against B. duncani; cited from earlier work
B. microti = test system: B. microti; design: method as in PMID 7447406; conditions: Mongolian jirds; cited from earlier work
Babesia gibsoni = test system: Babesia gibsoni; design: method as in PMID 18794380, PMID 21904052; conditions: cited from earlier work
Babesia bovis = test system: Babesia bovis; design: method as in PMID 18794380, PMID 21904052; conditions: cited from earlier work
[2] = Babesia duncani, Erythrocyte, read-out: B. duncani WA1 (IC50 in nM), DFS20 medium, 60 h
[3] = Plasmodium falciparum, 3D7, 72 h, DFS20 medium, 72 h, read-out: Pf3D7 (IC50 in nM)
[4] = Plasmodium falciparum, 3D7, DFS20, Table S3, read-out: P.falciparum 3D7 (IC50 in nM), DFS20
[5] = Plasmodium falciparum, 3D7, RPMI-1640 + 10% human serum, read-out: P.falciparum 3D7 (IC50 in nM), RPMI-1640 + 10%human serum
[6] = Plasmodium falciparum, DD2, 72 h
[7] = Plasmodium falciparum, HB3, 72 h

Structure (SMILES) | IC50 (B. duncani (WA-1); [2]) [nM] | IC50 (B. duncani (WA-1); read-out: B. duncani WA1 (IC50 in nM), DFS20 medium) [nM] | IC50 (B. divergens (Rouen87)) [nM] | IC50 (B. MO1; Babesia, Erythrocyte) [nM] | IC50 (B. MO1) [nM] | IC50 (P. falciparum 3D7; DFS20 medium, 72 h, read-out: Pf3D7 (IC50 in nM)) [nM] | IC50 (P. falciparum 3D7; [3]) [nM] | IC50 (P. falciparum 3D7; [4]) [nM] | IC50 (P. falciparum 3D7; [5]) [nM] | IC50 (P. falciparum Dd2; 72 h) [nM] | IC50 (P. falciparum Dd2; [6]) [nM] | IC50 (P. falciparum HB3; 72 h) [nM] | IC50 (P. falciparum HB3; [7]) [nM] | IC50 [1] [nM] | IC50 (B. duncani) [nM] | activity against B. microti infection (B. microti) | inhibition of in vitro parasite growth of Babesia gibsoni (Babesia gibsoni) | inhibition of in vitro parasite growth of Babesia bovis (Babesia bovis) | activity against B. duncani, structure-activity relationship (B. duncani (WA-1))
CC1(C)N=C(N)N=C(N)N1OCCCOc1ccccc1OC(F)(F)F [JPC-2060] | ~0.8 | 1 ± 0.06 | ~4 | ~0.5 | 0.6 ± 0.07 | 2.3 ± 0.5 | ~1.9 | 1.9 ± 0.29 | 0.8 ± 0.17 | 0.77 ± 0.4 | ~0.4 | 0.7 ± 0.1 | ~0.6 | 15000 |  |  |  |  | 
CC1(C)N=C(N)N=C(N)N1OCCCOc1ccc(Cl)c(C#N)c1 [JPC-2053] | 13.4 ± 1.41 |  | 6.6 ± 1.7 | 0.6 ± 0.5 |  |  | 2.6 ± 1.51 | 1.5 ± 0.071 | 1.4 ± 0.021 |  | 0.5 ± 0.045 |  | 0.75 ± 0.34 | 26000 |  |  |  |  | 
CCc1nc(N)nc(N)c1-c1ccc(Cl)cc1 [pyrimethamine, 2,4-Diamino-5-(4-chlorophenyl)−6-ethylpyrimidine] |  |  |  |  |  |  |  |  |  |  |  |  |  |  | 940 | little to no activity | moderate to effective inhibition | moderate to effective inhibition | 
Nc1ccc(S(=O)(=O)c2ccc(N)cc2)cc1 [dapsone] |  |  |  |  |  |  |  |  |  |  |  |  |  |  |  | little to no activity |  |  | 
NC1=NC(c2cccnc2)N(OCCCOc2ccc(OC(F)(F)F)cc2Cl)C(N)=N1 (centres unmarked) [JPC-3681] | 2 ± 0.2 |  | 6.4 ± 0.7 | 1 ± 0.07 |  |  | 2.3 ± 0.3 | 0.7 ± 0.072 | 1 ± 0.08 |  | 0.45 ± 0.03 |  | 0.8 ± 0.07 | 38000 |  |  |  |  | increased activity
CC1(C)N=C(N)N=C(N)N1OCCCOc1ccc(-n2cncn2)cc1 [JPC-1059] | 10.3 ± 0.7 |  | 3.7 ± 0.7 | 5.4 ± 1.4 |  |  | 2 ± 0.64 | 1.3 ± 0.09 | 1.4 ± 0.021 |  | 0.3 ± 0.02 |  | 0.3 ± 0.17 | 132000 |  |  |  |  | beneficial
COc1cc(Cc2cnc(N)nc2N)cc(OC)c1OC [trimethoprim] |  |  |  |  |  |  |  |  |  |  |  |  |  |  |  | little to no activity | moderate to effective inhibition | moderate to effective inhibition | 
COc1ccc(OCCCON2C(N)=NC(N)=NC2(C)C)cc1 [JPC-1044] | 7.1 ± 0.32 |  | 12 ± 0.16 | 0.2 ± 0.15 |  |  | 3.3 ± 2 | 2 ± 0.02 | 3.8 ± 0.022 |  | 0.6 ± 0.14 |  | 0.42 ± 0.25 | 62000 |  |  |  |  | 
CC1(C)N=C(N)N=C(N)N1OCCCOc1ccc(-c2nnnn2C(C)(C)C)cc1 [JPC-3671] | 1.6 ± 0.5 |  | 24 ± 2.14 | 6.5 ± 0.7 |  |  | 1 ± 0.32 | 2.1 ± 0.016 | 2.6 ± 0.02 |  | 17 ± 1.5 |  | 0.4 ± 0.02 | 38000 |  |  |  |  | beneficial
Cc1cc(NS(=O)(=O)c2ccc(N)cc2)no1 [sulfamethoxazole] |  |  |  |  |  |  |  |  |  |  |  |  |  |  |  | little to no activity |  |  | 
CN(Cc1cnc2nc(N)nc(N)c2n1)c1ccc(C(=O)N[C@@H](CCC(=O)O)C(=O)O)cc1 [methotrexate] |  |  |  |  |  |  |  |  |  |  |  |  |  |  |  |  | moderate to effective inhibition | moderate to effective inhibition | 
CCC(C)C1(C)N=C(N)N=C(N)N1OCCCOc1cc(Cl)c(Cl)cc1Cl (centres unmarked) [JPC-2748] | 4.4 ± 0.01 |  | 3.7 ± 0.3 | 4 ± 0.74 |  |  | 3 ± 0.77 | 0.2 ± 0.12 | 2 ± 0.061 |  | 12 ± 1.13 |  | 0.41 ± 0.07 | 1500 |  |  |  |  | 
NC1=NC(c2ccc(F)cc2)N(OCCCOc2ccc(OC(F)(F)F)cc2Cl)C(N)=N1 (centres unmarked) [JPC-3680] | 3.2 ± 0.21 |  | 40 ± 0.7 | 6 ± 0.5 |  |  | 1.7 ± 0.7 | 1.2 ± 0.03 | 1.8 ± 0.3 |  | 37 ± 1.25 |  | 2.1 ± 0.33 | 10000 |  |  |  |  | increased activity
CC1(C)N=C(N)N=C(N)N1OCCCOc1ccc(Cl)cc1Cl [JPC-210] | 3.6 ± 0.42 |  | 3.1 ± 1.42 | 0.8 ± 0.24 |  |  | 3.1 ± 1.24 | 1.6 ± 0.025 | 1.2 ± 0.1 |  | 0.05 ± 0.01 |  | 0.4 ± 0.07 | 69000 |  |  |  |  | 
